Reference: patent US11555012B2 (Nimbus Artemis, Inc., priority 2018, dated 2023)

Legend:
[1] = target: T1, ACL (Homo sapiens (Human), UniProt P53396); test: ADP-Glo Assay
Target sequence in this assay (P53396 other isoform, or with tags, fused parts or gaps isoform P53396-2): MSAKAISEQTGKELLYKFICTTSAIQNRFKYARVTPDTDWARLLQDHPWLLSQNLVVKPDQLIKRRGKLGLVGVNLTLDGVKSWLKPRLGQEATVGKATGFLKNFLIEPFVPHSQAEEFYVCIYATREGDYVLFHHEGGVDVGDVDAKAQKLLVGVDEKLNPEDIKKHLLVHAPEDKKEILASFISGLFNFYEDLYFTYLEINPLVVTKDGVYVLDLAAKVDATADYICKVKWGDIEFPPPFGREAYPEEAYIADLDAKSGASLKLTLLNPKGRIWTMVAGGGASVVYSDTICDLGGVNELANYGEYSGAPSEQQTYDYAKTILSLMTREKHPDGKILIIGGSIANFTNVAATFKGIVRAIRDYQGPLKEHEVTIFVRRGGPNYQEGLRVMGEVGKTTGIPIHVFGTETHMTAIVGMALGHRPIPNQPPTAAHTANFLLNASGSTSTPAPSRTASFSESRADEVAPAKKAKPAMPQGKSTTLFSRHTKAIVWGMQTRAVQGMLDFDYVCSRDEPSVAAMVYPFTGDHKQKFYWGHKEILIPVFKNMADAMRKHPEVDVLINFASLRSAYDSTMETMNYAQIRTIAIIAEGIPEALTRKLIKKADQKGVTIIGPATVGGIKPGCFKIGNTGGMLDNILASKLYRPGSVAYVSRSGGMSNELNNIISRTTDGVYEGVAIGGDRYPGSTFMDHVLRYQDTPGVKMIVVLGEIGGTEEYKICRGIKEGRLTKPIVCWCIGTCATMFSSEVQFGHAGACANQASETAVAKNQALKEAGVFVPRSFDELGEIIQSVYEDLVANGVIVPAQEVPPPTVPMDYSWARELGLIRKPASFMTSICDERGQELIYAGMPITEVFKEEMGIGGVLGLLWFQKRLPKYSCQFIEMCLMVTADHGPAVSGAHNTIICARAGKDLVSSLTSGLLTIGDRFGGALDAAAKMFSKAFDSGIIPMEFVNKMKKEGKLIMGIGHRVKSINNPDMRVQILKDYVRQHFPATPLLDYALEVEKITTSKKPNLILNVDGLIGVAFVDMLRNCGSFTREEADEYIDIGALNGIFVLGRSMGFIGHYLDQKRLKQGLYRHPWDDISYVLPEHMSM

[2] = target: T1, ACL; test: ACLY-MDH Coupled Assay
Target sequence in this assay (P53396 whole entry, species assumed): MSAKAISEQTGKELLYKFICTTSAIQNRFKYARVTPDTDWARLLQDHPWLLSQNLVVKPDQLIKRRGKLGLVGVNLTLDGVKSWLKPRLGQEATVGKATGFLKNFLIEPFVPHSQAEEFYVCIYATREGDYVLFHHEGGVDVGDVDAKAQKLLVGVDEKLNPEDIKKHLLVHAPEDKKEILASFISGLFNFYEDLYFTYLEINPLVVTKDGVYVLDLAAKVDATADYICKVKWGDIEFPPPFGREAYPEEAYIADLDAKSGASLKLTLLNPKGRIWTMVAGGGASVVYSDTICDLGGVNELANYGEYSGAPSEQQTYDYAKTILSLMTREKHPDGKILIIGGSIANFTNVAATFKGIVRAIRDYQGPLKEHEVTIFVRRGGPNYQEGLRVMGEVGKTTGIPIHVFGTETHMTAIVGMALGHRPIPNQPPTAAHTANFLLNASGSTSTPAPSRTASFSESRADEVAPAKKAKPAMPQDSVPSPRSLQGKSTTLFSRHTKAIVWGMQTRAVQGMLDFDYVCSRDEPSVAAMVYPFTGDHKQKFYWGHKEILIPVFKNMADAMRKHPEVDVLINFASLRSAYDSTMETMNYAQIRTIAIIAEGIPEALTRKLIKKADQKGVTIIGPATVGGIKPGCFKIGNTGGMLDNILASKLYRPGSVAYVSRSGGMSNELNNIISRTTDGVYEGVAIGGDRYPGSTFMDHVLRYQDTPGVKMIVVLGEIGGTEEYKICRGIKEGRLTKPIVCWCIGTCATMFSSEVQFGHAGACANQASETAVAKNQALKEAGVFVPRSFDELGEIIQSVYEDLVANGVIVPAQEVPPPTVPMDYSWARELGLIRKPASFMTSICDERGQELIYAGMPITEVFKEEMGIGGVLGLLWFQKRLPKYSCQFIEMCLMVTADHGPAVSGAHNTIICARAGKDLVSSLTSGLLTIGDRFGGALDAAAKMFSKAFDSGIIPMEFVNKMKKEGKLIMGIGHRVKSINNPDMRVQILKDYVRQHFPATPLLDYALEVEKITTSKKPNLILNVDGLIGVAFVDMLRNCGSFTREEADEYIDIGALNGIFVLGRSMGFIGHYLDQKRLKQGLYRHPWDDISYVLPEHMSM
Experimental: Compounds of the present invention were evaluated in an ACLY Coupled Assay.
The assay protocol for the Coupled Assay (below) was followed:
b) Add 1 μL cpds to 96 assay plate, Test cpd conc: 100/30/10 μM top dose, 3 folds dilution, 10+0+control (control: buffer without ACL+DMSO) points, 1000 rpm for 1 min, incubation at 25° C. for 60 min

[3] = read-out: ACL-ADP-Glo (IC50), 3 nM ACL, 15 μM ATP, 3 μM CoA, 300 μM Citrate
[4] = read-out: ACL-MDH Coupled Assay (IC50), 8 nM ACL, 60 μM CoA Na2, 85 μM Citrate, 250 μM ATP, 250 μM NADH

| IC50 [1] [nM] | IC50 [2] [nM] | IC50 [1, 3] [nM] | IC50 [2, 4] [nM] | SMILES |
| --- | --- | --- | --- | --- |
| 500 to 20000 | 500 to 30000 | – | – | O=S(=O)(c1cc(Br)cc(Cl)c1O)N(Cc1cncs1)c1ccc(Cl)cc1 [I-514, 5-bromo-3-chloro-N-(4-chlorophenyl)-2-hydroxy-N-(thiazol-5-ylmethyl)benzenesulfonamide] |
| 50 to 500 | 500 to 30000 | – | – | CC(=O)NC1CN(C(=O)c2cc(Cl)c(O)c(S(=O)(=O)Nc3cc(-c4ccccc4)c(F)cc3F)c2)C1 [I-162, N-[1-[3-chloro-5-([4,6-difluoro-[1,1-biphenyl]-3-yl]sulfamoyl)-4-hydroxybenzoyl]azetidin-3-yl]acetamide] |
| 50 to 500 | 500 to 30000 | – | – | O=C(c1cc(Cl)c(O)c(S(=O)(=O)Nc2cc(-c3ccccc3)c(F)cc2F)c1)N1Cc2ccccc2C1 [I-100, 3-chloro-N-(4,6-difluoro-[1,1′-biphenyl]-3-yl)-2-hydroxy-5-(isoindoline-2-carbonyl)benzenesulfonamide] |
| 500 to 20000 | > 30000 | – | – | N#Cc1cc(Cl)cc(S(=O)(=O)Nc2cc(-c3cc4ccccc4s3)c(F)cc2F)c1 [I-203, N-(5-(benzo[b]thiophen-2-yl)-2,4-difluorophenyl)-3-chloro-5-cyanobenzenesulfonamide] |
| – | – | 50 to 500 | 50 to 500 | O=c1[nH]cc(Cl)cc1S(=O)(=O)Nc1cc(-c2ccccc2)c(F)cc1F [I-326, 5-chloro-N-(4,6-difluoro-[1,1′-biphenyl]-3-yl)-2-oxo-1,2-dihydropyridine-3-sulfonamide] |
| 500 to 20000 | 500 to 30000 | – | – | Cc1c(S(=O)(=O)Nc2cc(-c3ccccc3)ccc2C(=O)O)c2ccccc2n1C [I-335] |
| 50 to 500 | 500 to 30000 | – | – | O=C(c1cc(Cl)c(O)c(S(=O)(=O)Nc2cc(-n3nccn3)ccc2F)c1)N1CCC1 [I-241, 5-(azetidine-1-carbonyl)-3-chloro-N-(2-fluoro-5-(2H-1,2,3-triazol-2-yl)phenyl)-2-hydroxybenzenesulfonamide] |
| 500 to 20000 | 500 to 30000 | – | – | COC(=O)c1cc(Cl)c(OC)c(S(=O)(=O)Nc2cc(-c3ccccc3)ccc2F)c1 [I-49, Methyl 3-chloro-5-(N-(4-fluoro-[1,1′-biphenyl]-3-yl)sulfamoyl)-4-methoxybenzoate] |
| 50 to 500 | 50 to 500 | – | – | CS(=O)(=O)c1cc(Cl)c(O)c(S(=O)(=O)Nc2cc(-c3ccccc3)c(F)cc2F)c1 [I-124, 3-chloro-N-[4,6-difluoro-[1,1-biphenyl]-3-yl]-2-hydroxy-5-methanesulfonylbenzene-1-sulfonamide] |
| 500 to 20000 | 500 to 30000 | – | – | O=S(=O)(Nc1cc(-c2ccccc2)ccn1)c1cc(Cl)cc(Br)c1O [I-32] |
| 500 to 20000 | 500 to 30000 | – | – | O=C(Nc1cc(-c2cc3ccccc3s2)ccc1C(=O)O)c1cc(Cl)cc(Cl)c1 [I-515, 4-(benzo[b]thiophen-2-yl)-2-(3,5-dichlorobenzamido)benzoic Acid] |
| 500 to 20000 | 500 to 30000 | – | – | COc1ccc(-c2cccnc2)cc1NS(=O)(=O)c1cc(Cl)cc(Cl)c1O [I-7, 3,5-dichloro-2-hydroxy-N-(2-methoxy-5-(pyridin-3-yl)phenyl)benzenesulfonamide] |
| 500 to 20000 | 500 to 30000 | – | – | COc1c(Cl)cc(Cl)cc1S(=O)(=O)Nc1cc(-c2cc3ccccc3s2)ccc1C(=O)O [I-297, 4-(benzo[b]thiophen-2-yl)-2-((3,5-dichloro-2-methoxyphenyl)sulfonamido)benzoic Acid] |
| – | 50 to 500 | < 50 | – | O=C(c1cc(Cl)c(O)c(S(=O)(=O)N(C(=O)C2CC2)c2cc(-c3ccccc3)c(F)cc2F)c1)N1CCC1 [I-229, N-((5-(azetidine-1-carbonyl)-3-chloro-2-hydroxyphenyl)sulfonyl)-N-(4,6-difluoro-[1,1′-biphenyl]-3-yl)cyclopropanecarboxamide] |
| 500 to 20000 | 500 to 30000 | – | – | O=C(O)c1ccc(-c2ccccc2)cc1NS(=O)(=O)c1cc(Cl)c(Cl)s1 [I-311, 3-((4,5-dichlorothiophene)-2-sulfonamido)-[1,1′-biphenyl]-4-carboxylic acid] |
| 500 to 20000 | 500 to 30000 | – | – | O=C(O)c1cc(Cl)c(O)c(S(=O)(=O)Nc2cc(-c3ccccc3)ccc2F)c1 [I-107, 3-chloro-5-[(2-fluoro-5-phenylphenyl)sulfamoyl]-4-hydroxybenzoic Acid] |
| 500 to 20000 | 500 to 30000 | – | – | COc1cc(Br)ccc1NS(=O)(=O)c1cc(Cl)cc(Cl)c1O [I-11, N-(4-bromo-2-methoxyphenyl)-3,5-dichloro-2-hydroxybenzenesulfonamide] |
| 500 to 20000 | 500 to 30000 | – | – | O=C(O)c1cc(Cl)c(O)c(S(=O)(=O)Nc2cc(-c3cccs3)c(F)cc2F)c1 [I-248, 3-chloro-5-[[2,4-difluoro-5-(thiophen-2-yl)phenyl]sulfamoyl]-4-hydroxybenzoic Acid] |
| 500 to 20000 | 500 to 30000 | – | – | Nc1ccc(-c2ccccc2)cc1NS(=O)(=O)c1cc(Cl)cc(Br)c1O [I-53, N-(2-amino-5-phenylphenyl)-3-bromo-5-chloro-2-hydroxybenzene-1-sulfonamide] |
| 500 to 20000 | 500 to 30000 | – | – | O=C(O)c1ccc(F)c(NS(=O)(=O)c2cc(Cl)cc(Cl)c2O)c1 [I-12, 3-((3,5-dichloro-2-hydroxyphenyl)sulfonamido)-4-fluorobenzoic Acid] |
| 500 to 20000 | 500 to 30000 | – | – | O=C(O)c1ccc(-c2ccccc2)cc1NS(=O)(=O)c1c(Cl)nc2ccc(Br)cn12 [I-334] |
| 50 to 500 | 50 to 500 | – | – | CNC(=O)c1cc(Cl)c(O)c(S(=O)(=O)Nc2cc(-c3ccccc3)c(F)cc2F)c1 [I-92, 3-chloro-5-[(2,4-difluoro-5-phenylphenyl)sulfamoyl]-4-hydroxy-N-methylbenzamide] |
| 500 to 20000 | 500 to 30000 | – | – | O=S(=O)(Nc1cc(Cl)cc(-c2nccs2)c1)c1cc(Cl)cc(Cl)c1O [I-240, 3,5-dichloro-N-(3-chloro-5-(thiazol-2-yl)phenyl)-2-hydroxybenzenesulfonamide] |
| – | – | < 50 | < 50 | O=C(c1cc(Cl)c(O)c(S(=O)(=O)Nc2cc(-c3ccccc3)cc(F)c2F)c1)N1CCCC1 [I-159, 3-chloro-N-[4,5-difluoro-[1,1-biphenyl]-3-yl]-2-hydroxy-5-(pyrrolidine-1-carbonyl)benzene-1-sulfonamide] |
| 500 to 20000 | 500 to 30000 | – | – | O=C(O)c1ccc(-c2ccccc2)cc1NS(=O)(=O)c1cc(Cl)cc(Cl)c1O [I-249, 3-((3,5-dichloro-2-hydroxyphenyl)sulfonamido)-[1,1′-biphenyl]-4-carboxylic acid] |
| 500 to 20000 | 500 to 30000 | – | – | O=C(O)c1occc1NS(=O)(=O)c1cc(Cl)cc(Cl)c1 [I-316, 3-((3,5-dichlorophenyl)sulfonamido)furan-2-carboxylic acid] |

| SMILES | IC50 [1] [nM] | IC50 [2] [nM] | IC50 [1, 3] [nM] | IC50 [2, 4] [nM] |
| --- | --- | --- | --- | --- |
| COc1ccc(-c2ccccc2)cc1NS(=O)(=O)c1cc(C(=O)N2CC(N)C2)cc(Cl)c1O [I-276, 5-(3-aminoazetidine-1-carbonyl)-3-chloro-2-hydroxy-N-[4-methoxy-[1,1-biphenyl]-3-yl]benzene-1-sulfonamide] | – | 50 to 500 | < 50 | – |
| O=C(c1cc(Cl)c(O)c(S(=O)(=O)Nc2cc(-c3ccccc3)cc(F)c2F)c1)N1CCC1 [I-160, 5-(azetidine-1-carbonyl)-3-chloro-N-[4,5-difluoro-[1,1-biphenyl]-3-yl]-2-hydroxybenzene-1-sulfonamide] | – | – | < 50 | < 50 |
